Test [1] has as its system vascular smooth muscle cells (VSMCs). In words: Vascular calcification induced by Pi 5 mM in VSMCs, extracellular calcium deposition on day 7. It is filed as cell-based. The note with it: rat VSMCs; for calcification inhibition: compared with 5 mM Pi in the same solvent; for effect of the individual compounds on the calcification (dose-response curves): Pi 5 mM. As to the method:
The experimental model consists of vascular smooth muscle cells (VSMCs) removed from the aorta of a rat (primary cells) and stimulated for 7 days with Na3PO4 (Pi) 5 mM to induce them to […]. […] On day 7, the effect of the treatment on the extracellular calcium deposition was analyzed both by a qualitative histological method (staining of calcium deposits by Alizarin Red Staining), and by a quantitative method, by measuring the amount of […] calcium by a spectrophotometric technique (FIG. 1). Each type of experiment was repeated at least 3 times and each condition was tested at least three times within every single experiment.

The subject of test [2] is human aortic cell cultures. In words: Calcification induced by inorganic phosphate (Pi, 2 mM) in human aortic cell cultures, Alizarin Red Staining quantification. It is filed as cell-based. The note with it: products at 0.03%; for % VAR vs CTR+: average % variation of ARS vs positive control (Pi 2 mM only); for % VAR vs CTR−: average % variation of ARS vs untreated negative control; for % VAR vs CTR− / ARS mM average: Pi 2 mM; for ARS mM average: human aortic cells, 7 days, ARS quantity proportional to calcium content. As to the method: (II) Similarly to what has been stated for the in vitro (I) study, the efficacy was tested of the composition according to the present invention comprising sucrosomial iron pyrophosphate (SRM) (Sucrosomiale®; Sucrosomial®), vitamin K2 menaquinone-7 (MK-7) and magnesium carbonate (MC) (composition called TRIO in Table 1 and FIG. 10) on the slowing of the progression of the vascular calcification induced by high levels of sodium phosphate (Pi) in a vascular cell culture and compared with the efficacy of the single components of the TRIO composition.
In particular, to execute the efficacy test, human aortic cell cultures were treated for 7 days with inorganic phosphate (Pi, 2 mM), a known calcifying agent, to induce mineralization of the cells, and with the products subjected to a concentration test 0.03% (% g of compound under examination/solution volume) and subsequently treated with the compound compositions under examination. At the end of the experimental treatment, the calcium content was quantified by a colorimetric assay, i.e. staining of the calcium deposits by Alizarin Red Staining (ARS).
The experimental design specified: untreated cell cultures (negative control CTR−), cell cultures (positive control CTR+) treated only with the calcifying agent (Pi) and cell cultures in which a calcification event was induced experimentally by the calcifying agent (Pi) and subsequently treated with the compositions/compounds under examination (0.03% concentrations) such as TRIO composition, only sucrosomial iron pyrophosphate (SRM) (Sucrosomiale®; Sucrosomial®), only vitamin K2 menaquinone-7 (MK-7) and only magnesium carbonate (MC).
The Alizarin Red Staining S (ARS) is an anthraquinone staining solution that is widely used to evaluate calcium deposits in cell cultures. Alizarin Red Staining (ARS) is versatile because the dye can be easily extracted from the coloured single layer of the cells and can be promptly dosed. The ARS quantification assay provides a sensitive tool for partial quantification of calcium in a cell matrix. Mineralization is assessed by extracting the low pH calcified mineral, neutralization with ammonia hydroxide and 405 nm colorimetric detection.
In the present study, the cells subjected to the different aforementioned treatments were fixed for ARS and the deposition of mineral was quantified by a commercially available colorimetric kit. For this purpose, a calibration curve was plotted with known and increasing ARS concentrations.
The results are set out in Table 1 and FIG. 10 as an ARS quantity that is directly proportional to the calcium content in the different experimental treatments (average value±st. dev.) and as average % variation from the controls. The data obtained from the different experimental groups were analyzed statistically and compared with T-test. The significant values in FIG. 10 compared with the positive control (p<0.05) are marked with an asterisk (*).

In the case of `CC(C)=CCC/C(C)=C/CC/C(C)=C/CC/C(C)=C/CC/C(C)=C/CC/C(C)=C/CC/C(C)=C/CC1=C(C)C(=O)c2ccccc2C1=O` [9_MK7, menaquinone-7], the calcification inhibition in test [1] (in ethanol) is 20%. In test [1] (in ethyl acetate), the calcification inhibition lay in the range of 15 to 30%. Further, in test [2], the “% VAR vs CTR+” value is listed as 58.0%, the “% VAR vs CTR−” value worked out at 34.7% and the “ARS mM average” value is on record as 0.100 mM.
Take `O=C([O-])[O-].[Mg+2]` [11_MC, magnesium carbonate]: in test [2], the “% VAR vs CTR+” value is recorded as −49.6%, the “% VAR vs CTR−” value is reported as 61.7% and the “ARS mM average” value came out at 0.120 mM.
Regarding `[Cl-].[Cl-].[Mg+2]` [MgCl2, magnesium chloride], in test [1], the “effect of the individual compounds on the calcification (dose-response curves)” value was “powerful calcification inhibitors, with a dose-dependent protective effect”.
The same measure, in the same setting: the value for iron (III) pyrophosphate [Fe4(P2O7)3] was “powerful calcification inhibitors, with a dose-dependent protective effect”.

The record behind these values is patent US20200206157A1, “COMPOSITION FOR USE IN THE PREVENTION AND TREATMENT OF PATHOLOGIES OF THE CARDIOVASCULAR APPARATUS” (PHARMANUTRA S.P.A., priority 2017, published 2020).
